Structures can show the parent of a compound that is named as a salt.
Target: T1, RET (Homo sapiens, UniProt P07949)
T1 construct: purchased Upstate 14-570MG
Assay: Inhibition of RET kinase activity, recombinant RET method (Kinase-Glo)
Format: biochemical
Conditions: RET 2 μg/ml, poly-EY4 substrate, 20 μM ATP, two hours at 30° C.
Description: The inhibition of the kinase activity of the compounds of the invention is assessed by measuring their IC50 on RET.
where: • Y is the value of the luminescence • X is the logarithm of the concentration of the compound • Bottom is the minimum Y value • Top is the maximum Y value • LogIC50 is the value of X when Y is 50% from Top—Bottom.
The quantity of RET required is 2 μg/ml.
The following buffer is used for dilution of RET: 20 mM MOPS/NaOH pH7.0, 1 mM EDTA, 5% glycerol, 0.01% Brij35 (Sigma B4184), 0.1% 2-mercaptoethanol, 1 mg/ml BSA (Sigma A3059-10G).
The dilution of the compounds of the invention is distributed so as to obtain a scale of final concentrations between 10 nM and 30 μM.
After incubation of the reaction mixture for two hours at 30° C., the level of ATP that remains is assayed using the Kinase-Glo Luminescent Kinase Assay (Promega #V6712) according to the conditions recommended by the supplier. The luminescence induced is read in a plate reader (Envision-Perkin Elmer).

T1 sequence (P07949 29-1114): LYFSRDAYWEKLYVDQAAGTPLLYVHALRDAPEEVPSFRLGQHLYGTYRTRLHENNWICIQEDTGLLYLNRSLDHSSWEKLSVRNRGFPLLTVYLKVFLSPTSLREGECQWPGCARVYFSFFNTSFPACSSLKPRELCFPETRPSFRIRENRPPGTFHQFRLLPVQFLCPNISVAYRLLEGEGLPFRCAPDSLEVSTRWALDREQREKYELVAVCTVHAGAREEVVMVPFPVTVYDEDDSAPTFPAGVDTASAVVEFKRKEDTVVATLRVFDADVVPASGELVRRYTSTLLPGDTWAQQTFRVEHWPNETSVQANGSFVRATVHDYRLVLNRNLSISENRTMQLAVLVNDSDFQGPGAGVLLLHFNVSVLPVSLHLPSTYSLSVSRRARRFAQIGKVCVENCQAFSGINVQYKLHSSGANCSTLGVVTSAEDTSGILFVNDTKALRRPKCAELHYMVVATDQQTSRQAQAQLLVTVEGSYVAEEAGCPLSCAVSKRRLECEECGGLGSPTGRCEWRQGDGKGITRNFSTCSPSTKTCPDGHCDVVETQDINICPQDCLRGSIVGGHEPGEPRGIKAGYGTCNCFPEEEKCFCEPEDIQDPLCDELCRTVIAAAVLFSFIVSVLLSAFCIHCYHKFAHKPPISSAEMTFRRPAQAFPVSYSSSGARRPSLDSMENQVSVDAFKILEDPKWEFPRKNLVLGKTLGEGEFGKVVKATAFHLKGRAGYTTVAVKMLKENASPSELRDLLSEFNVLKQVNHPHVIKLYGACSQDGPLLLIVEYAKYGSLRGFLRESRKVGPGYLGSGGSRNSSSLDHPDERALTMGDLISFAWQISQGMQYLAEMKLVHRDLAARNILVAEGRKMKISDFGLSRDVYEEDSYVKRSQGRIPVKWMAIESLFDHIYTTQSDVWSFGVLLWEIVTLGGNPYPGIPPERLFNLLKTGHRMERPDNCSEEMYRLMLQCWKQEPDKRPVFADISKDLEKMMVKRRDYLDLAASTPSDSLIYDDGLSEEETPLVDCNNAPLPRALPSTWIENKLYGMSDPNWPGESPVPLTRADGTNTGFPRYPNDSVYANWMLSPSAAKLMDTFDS

Compound | IC50
CN(C)C(=O)c1c[nH]c2c(=O)[nH]c3ccccc3c12 [Compound 89, N,N-(Dimethyl)-4-oxo-4,5-dihydro-3H-pyrrolo[2,3-c]quinoline-1-carboxamide] | 10 to 100 µM
CCOC(=O)c1c[nH]c2c(=O)[nH]c3ccc(S(=O)(=O)NC4CCCCCC4)cc3c12 [Compound 31, 8-Cycloheptylsulfamoyl-4-oxo-4,5-dihydro-3H-pyrrolo[2,3-c]quinoline-1-ethyl carboxylate] | 0.1 to 1 µM
CCOC(=O)c1c[nH]c2c(=O)[nH]c3ccc(NS(=O)(=O)c4ccc(Cl)cc4)cc3c12 [Compound 40, 8-(4-Chloro-benzenesulfonylamino)-4-oxo-4,5-dihydro-3H-pyrrolo[2,3-c]quinoline-1-ethyl carboxylate] | 0.1 to 1 µM
CCOC(=O)c1c[nH]c2c(=O)[nH]c3ccc(-c4ccc5[nH]ccc5c4)cc3c12 [Compound 252, 8-(1H-Indol-5-yl)-4-oxo-4,5-dihydro-3H-pyrrolo[2,3-c]quinoline-1-ethyl carboxylate] | 0.1 to 1 µM
CCOC(=O)c1c[nH]c2c(=O)[nH]c3ccc(C(=O)/C=C/N(C)C)cc3c12 [Compound 217, 8-(3-Dimethylamino-acryloyl)-4-oxo-4,5-dihydro-3H-pyrrolo[2,3-c]quinoline-1-ethyl carboxylate] | 0.1 to 1 µM
CN(C(=O)OC(C)(C)C)C1CCN(S(=O)(=O)c2ccc3[nH]c(=O)c4[nH]cc(C(=O)O)c4c3c2)C1 (stereo not shown) [Compound 170, 8-[3-(tert-Butoxycarbonyl-methyl-amino)-pyrrolidine-1-sulfonyl]-4-oxo-4,5-dihydro-3H-pyrrolo[2,3-c]quinoline-1-carboxylic acid] | 10 to 100 µM
CCOC(=O)c1c[nH]c2c(=O)[nH]c3ccc(NS(=O)(=O)c4cccc(Cl)c4)cc3c12 [Compound 41, 8-(3-Chloro-benzenesulfonylamino)-4-oxo-4,5-dihydro-3H-pyrrolo[2,3-c]quinoline-1-ethyl carboxylate] | 0.1 to 1 µM
COC(=O)CCNC(=O)c1c[nH]c2c(=O)[nH]c3ccccc3c12 [Compound 81, 3-[(4-Oxo-4,5-dihydro-3H-pyrrolo[2,3-c]quinoline-1-carbonyl)-amino]-methyl propanoate] | 10 to 100 µM
CCCOC(=O)c1c[nH]c2c(=O)[nH]c3cc(F)c(S(=O)(=O)N(CCO)C(C)C)cc3c12 [Compound 185, 7-Fluoro-8-[(2-hydroxy-ethyl)-isopropyl-sulfamoyl]-4-oxo-4,5-dihydro-3H-pyrrolo[2,3-c]quinoline-1-propyl carboxylate] | < 0.1 µM
CCOC(=O)c1c[nH]c2c(=O)[nH]c3ccc(C#Cc4ccccc4)cc3c12 [Compound 201, 4-Oxo-8-phenylethynyl-4,5-dihydro-3H-pyrrolo[2,3-c]quinoline-1-ethyl carboxylate] | 1 to 10 µM
CCOC(=O)c1c[nH]c2c(=O)[nH]c3ccc(S(=O)(=O)N(C)C)cc3c12 [Compound 26, 8-Dimethylsulfamoyl-4-oxo-4,5-dihydro-3H-pyrrolo[2,3-c]quinoline-1-ethyl carboxylate] | 0.1 to 1 µM
CCCOC(=O)c1c[nH]c2c(=O)[nH]c3ccc(S(=O)(=O)N(CCNC(C)C)C4CC4)cc3c12 [Compound 142, 8-[Cyclopropyl-(2-isopropylamino-ethyl)-sulfamoyl]-4-oxo-4,5-dihydro-3H-pyrrolo[2,3-c]quinoline-1-propyl carboxylate hydrochloride] | 0.1 to 1 µM
C#CCN(C)S(=O)(=O)c1ccc2[nH]c(=O)c3[nH]cc(C(=O)OCCC)c3c2c1 [Compound 134, 8-(Methyl-prop-2-ynyl-sulfamoyl)-4-oxo-4,5-dihydro-3H-pyrrolo[2,3-c]quinoline-1-propyl carboxylate] | 0.1 to 1 µM
CCOC(=O)c1c[nH]c2c(=O)[nH]c3ccc(NS(=O)(=O)c4ccc([N+](=O)[O-])cc4)cc3c12 [Compound 53, 8-(4-Nitro-benzenesulfonylamino)-4-oxo-4,5-dihydro-3H-pyrrolo[2,3-c]quinoline-1-ethyl carboxylate] | 0.1 to 1 µM
CN(C)CCCNC(=O)c1c[nH]c2c(=O)[nH]c3ccccc3c12 [Compound 80, N-(3-Dimethylamino-propyl)-4-oxo-4,5-dihydro-3H-pyrrolo[2,3-c]quinoline-1-carboxamide] | 10 to 100 µM
CCOC(=O)c1c[nH]c2c(=O)[nH]c3cc(OC)ccc3c12 [Compound 213, 7-Methoxy-4-oxo-4,5-dihydro-3H-pyrrolo[2,3-c]quinoline-1-ethyl carboxylate] | 1 to 10 µM
CN(c1ccc(F)cc1)S(=O)(=O)c1ccc2[nH]c(=O)c3[nH]cc(C(=O)O)c3c2c1 [Compound 103, 8-[(4-Fluorophenyl)-methyl-sulfamoyl]-4-oxo-4,5-dihydro-3H-pyrrolo[2,3-c]quinoline-1-carboxylic acid] | 10 to 100 µM

Compound | IC50
CCCOC(=O)c1c[nH]c2c(=O)[nH]c3ccc(S(=O)(=O)N(CCO)C4CC4)cc3c12 [Compound 174, 8-[Cyclopropyl-(2-hydroxy-ethyl)-sulfamoyl]-4-oxo-4,5-dihydro-3H-pyrrolo[2,3-c]quinoline-1-propyl carboxylate] | < 0.1 µM
CCOC(=O)c1c[nH]c2c(=O)[nH]c3ccc(S(=O)(=O)N4CCC[C@H]4CN4CCCC4)cc3c12 [Compound 163, (S)-4-Oxo-8-(2-pyrrolidin-1-ylmethyl-pyrrolidine-1-sulfonyl)-4,5-dihydro-3H-pyrrolo[2,3-c]quinoline-1-ethyl carboxylate] | 0.1 to 1 µM
COC(=O)c1c[nH]c2c(=O)[nH]c3ccc(S(=O)(=O)NN4CCCCC4)cc3c12 [Compound 191, 4-Oxo-8-(piperidin-1-ylsulfamoyl)-4,5-dihydro-3H-pyrrolo[2,3-c]quinoline-1-methyl carboxylate] | 1 to 10 µM
CCOC(=O)c1c[nH]c2c(=O)[nH]c3ccc(-c4csc(NC(=O)C5CC5)n4)cc3c12 [Compound 275, 8-[2-(Cyclopropanecarbonyl-amino)-thiazol-4-yl]-4-oxo-4,5-dihydro-3H-pyrrolo[2,3-c]quinoline-1-ethyl carboxylate] | 0.1 to 1 µM
CCCOC(=O)c1c[nH]c2c(=O)[nH]c3ccc(S(=O)(=O)N(C)CCN(C)C(=O)OC(C)(C)C)cc3c12 [Compound 140, 8-{[2-(tert-Butoxycarbonyl-methyl-amino)-ethyl]-methyl-sulfamoyl}-4-oxo-4,5-dihydro-3H-pyrrolo[2,3-c]quinoline-1-propyl carboxylate] | 1 to 10 µM
CCOC(=O)c1c[nH]c2c(=O)[nH]c3ccc(C#Cc4ccccn4)cc3c12 [Compound 202, 4-Oxo-8 pyridin-2-ylethynyl-4,5-dihydro-3H-pyrrolo[2,3-c]quinoline-1-ethyl carboxylate] | 1 to 10 µM
CCCOC(=O)c1c[nH]c2c(=O)[nH]c3ccc(S(=O)(=O)N(C)CC4OCCO4)cc3c12 [Compound 129, 8-[1,3]Dioxolan-2-ylmethyl-methyl-sulfamoyl)-4-oxo-4,5-dihydro-3H-pyrrolo[2,3-c]quinoline-1-propyl carboxylate] | 0.1 to 1 µM
CN(c1ccc(F)cc1)S(=O)(=O)c1ccc2[nH]c(=O)c3[nH]cc(C(=O)OCCCNC(=O)OC(C)(C)C)c3c2c1 [Compound 108, 3-tert-Butoxycarbonylamino-propyl 8-[(4-fluorophenyl)-methyl-sulfamoyl]-4-oxo-4,5-dihydro-3H-pyrrolo[2,3-c]quinoline-1-carboxylate] | 10 to 100 µM
CCOC(=O)c1c[nH]c2c(=O)[nH]c3ccc(S(=O)(=O)N(C)Cc4ccccc4)cc3c12 [Compound 24, 8-(Benzyl-methyl-sulfamoyl)-4-oxo-4,5-dihydro-3H-pyrrolo[2,3-c]quinoline-1-ethyl carboxylate] | 0.1 to 1 µM
CCCOC(=O)c1c[nH]c2c(=O)[nH]c3ccc(S(=O)(=O)N4CC[C@@H](N(C)C)C4)cc3c12 [Compound 172] | 1 to 10 µM
CCCOC(=O)c1c[nH]c2c(=O)[nH]c3ccc(S(=O)(=O)N4CCCC(C(N)=O)C4)cc3c12 (stereo not shown) [Compound 179, 8-(3-Carbamoyl-piperidine-1-sulfonyl)-4-oxo-4,5-dihydro-3H-pyrrolo[2,3-c]quinoline-1-propyl carboxylate] | 0.1 to 1 µM
CCOC(=O)c1c[nH]c2c(=O)[nH]c3ccc(CCc4ccccc4)cc3c12 [Compound 207, 4-Oxo-8-phenethyl-4,5-dihydro-3H-pyrrolo[2,3-c]quinoline-1-ethyl carboxylate] | 0.1 to 1 µM
O=C(O)c1c[nH]c2c(=O)[nH]c3ccccc3c12 [Compound 75, 4-oxo-4,5-dihydro-3H-pyrrolo[2,3-c]quinoline-1-carboxylic acid] | 10 to 100 µM
CCOC(=O)c1c[nH]c2c(=O)[nH]c3ccc(S(=O)(=O)Cc4c(Cl)cccc4Cl)cc3c12 [Compound 36, 8-(2,6-Dichlorophenylmethanesulfonyl)-4-oxo-4,5-dihydro-3H-pyrrolo[2,3-c]quinoline-1-ethyl carboxylate] | 0.1 to 1 µM
CCOC(=O)c1c[nH]c2c(=O)[nH]c3ccc(S(=O)(=O)Nc4cccc(C)c4)cc3c12 [Compound 5, 4-Oxo-8-m-tolylsulfamoyl-4,5-dihydro-3H-pyrrolo[2,3-c]quinoline-1-ethyl carboxylate] | 0.1 to 1 µM
COC(=O)c1c[nH]c2c(=O)[nH]c3ccccc3c12 [Compound 73, 4-Oxo-4,5-dihydro-3H-pyrrolo[2,3-c]quinoline-1-methyl carboxylate] | 1 to 10 µM
CCOC(=O)c1c[nH]c2c(=O)[nH]c3ccc(/C=C/C(=O)NCc4ccccc4)cc3c12 [Compound 68, 8-(2-Benzylcarbamoyl-vinyl)-4-oxo-4,5-dihydro-3H-pyrrolo[2,3-c]quinoline-1-ethyl carboxylate] | 1 to 10 µM

Source: US8426437B2, “Pyrroloquinoline derivatives and their use as protein kinases inhibitors” (Pierre Fabre Medicament, priority 2005, dated 2013)
